These results are taken from patent US4517187A, “1,3,4,6,7-11b-Hexahydro-7-phenyl-2H-pyrazino[2,1-a]isoquinolines methods of preparation, and use as antidepressants” (Pennwalt Corporation, priority 1982, dated 1985).

The target of experiment [1] is T1, histamine-stimulated adenylate cyclase (Cavia porcellus, UniProt P47747).
T1 construct: by the method developed by Kanof and Greengard; from tissue; host or cells: brain homogenate (guinea pig hippocampus/neocortex, inferred from the cited method)
T1 sequence (P47747 whole entry): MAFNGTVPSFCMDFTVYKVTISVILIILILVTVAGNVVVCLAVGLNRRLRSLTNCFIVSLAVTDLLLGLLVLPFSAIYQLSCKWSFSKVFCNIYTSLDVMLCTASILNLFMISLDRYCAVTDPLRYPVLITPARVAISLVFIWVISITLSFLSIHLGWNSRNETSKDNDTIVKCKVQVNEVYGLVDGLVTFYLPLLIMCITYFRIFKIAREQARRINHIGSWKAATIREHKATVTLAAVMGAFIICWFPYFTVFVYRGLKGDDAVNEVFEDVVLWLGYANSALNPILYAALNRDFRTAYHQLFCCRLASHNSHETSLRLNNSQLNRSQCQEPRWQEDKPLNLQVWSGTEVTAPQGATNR
The experiment in a line: in vitro inhibition of histamine-stimulated adenylate cyclase (ad. cyc H). The settings on record: smaller numbers indicate greater potency, read-out: ad cyc H rating (molar concentration required to inhibit by 50% the stimulation of adenylate cyclase observed after treatment with histamine). It is filed as biochemical.

For experiment [2], the target named is binding of tritiated quinuclidinyl benzylate ([^3 H]-QNB) in brain. More on the design: species or system rat. The settings on record: in vitro; brain homogenates; read-out: (^3 H)QNB rating (molar concentration required to inhibit by 50% the binding of [^3 H]QNB).
The target of experiment [3] is T2, specific binding of tritiated mepyramine ([^3 H]-mepyramine) in brain (Rattus norvegicus, UniProt P31390).
T2 construct: rate brain homogenates; from tissue; host or cells: rat brain homogenate
T2 sequence (P31390 whole entry): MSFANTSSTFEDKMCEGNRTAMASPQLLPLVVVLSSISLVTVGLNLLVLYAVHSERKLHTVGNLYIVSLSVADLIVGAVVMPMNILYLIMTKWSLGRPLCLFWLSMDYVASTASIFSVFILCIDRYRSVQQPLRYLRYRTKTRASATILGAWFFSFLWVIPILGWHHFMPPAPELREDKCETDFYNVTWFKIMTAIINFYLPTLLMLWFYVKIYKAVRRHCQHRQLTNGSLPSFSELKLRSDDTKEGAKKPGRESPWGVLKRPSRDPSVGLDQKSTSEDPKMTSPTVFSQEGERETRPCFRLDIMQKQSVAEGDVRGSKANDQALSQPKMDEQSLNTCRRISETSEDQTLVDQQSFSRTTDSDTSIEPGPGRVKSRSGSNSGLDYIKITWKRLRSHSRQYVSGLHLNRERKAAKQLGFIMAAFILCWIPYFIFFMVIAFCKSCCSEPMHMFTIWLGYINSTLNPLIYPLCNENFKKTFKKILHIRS
The experiment in a line: in vitro inhibition of the specific binding of [3H]-mepyramine in brain. The settings on record: brain homogenates, read-out: (^3 H)mepyramine rating (molar concentration required to inhibit by 50% the binding of [^3 H]mepyramine).

Where a name gives a salt, the structure may show the parent alone.

On to `CN1CCN2C[C@@H](c3ccccc3)c3ccccc3[C@@H]2C1` (relative stereo) [Example 1, cis-1,3,4,6,7,11b-Hexahydro-2-methyl-7-phenyl-2H-pyrazino[2,1-a]isoquinoline dihydrochloride], for which the figures for the IC50 in experiment [1], in experiment [2] and in experiment [3] were 6.8 µM, 250 nM and 20 nM, respectively.
In the same order, the values of `CN1CCN2C[C@@H](c3ccccc3)c3ccccc3[C@H]2C1` (relative stereo) [Example 2, trans-1,3,4,6,7,11b-Hexahydro-2-methyl-7-phenyl-2H-pyrazino[2,1-a]isoquinoline dihydrochloride] are > 10 µM, 3300 nM and > 1000 nM.
The corresponding values for `CCN1CCN2C[C@@H](c3ccccc3)c3ccccc3[C@@H]2C1` (relative stereo) [Example 3, cis-1,3,4,6,7,11b-Hexahydro-2-ethyl-7-phenyl-2H-pyrazino[2,1-a]isoquinoline dihydrochloride] are > 10 µM, 1100 nM and 340 nM.
In the same order, the values of `c1ccc([C@@H]2CN3CCNC[C@H]3c3ccccc32)cc1` (relative stereo) [Example 4, cis-1,3,4,6,7,11b-Hexahydro-7-phenyl-2H-pyrazino[2,1-a]isoquinoline dihydrochloride] are > 10 µM, 920 nM and > 1000 nM.
